Like-named read-outs stand apart in the source and are kept apart here.
What was measured:
EGFR Del19/T790M/C797S = EGFR Del19/T790M/C797S (Homo sapiens, UniProt P00533, C797S/DEL746-750/T790M); assay: Biochemical EGFR kinase inhibition assay (Lance Ultra TR-FRET), triple mutant del19/T790M/C797S
Method in brief: (§1)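 Enzyme reactions lasted 1 hour at room temperature with test compounds between 0.003 and 10 μM, followed by 10 mM EDTA quench.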

EGFR L858R/T790M/C797S = EGFR L858R/T790M/C797S (Homo sapiens, UniProt P00533, C797S/L858R/T790M); assay: Biochemical EGFR kinase inhibition assay (Lance Ultra TR-FRET), triple mutant L858R/T790M/C797S
Method in brief: as §1

EGFR Del19/C797S = EGFR Del19/C797S (Homo sapiens, UniProt P00533, C797S/DEL746-750); assay: Biochemical EGFR kinase inhibition assay (Lance Ultra TR-FRET), double mutant del19/C797S
Method in brief: as §1

EGFR L858R/C797S = EGFR L858R/C797S (Homo sapiens, UniProt P00533, C797S/L858R); assay: Biochemical EGFR kinase inhibition assay (Lance Ultra TR-FRET), double mutant L858R/C797S
Method in brief: as §1

EGFR wildtype (WT) = EGFR wildtype (WT) (Homo sapiens, UniProt P00533); assay: Biochemical EGFR kinase inhibition assay (Lance Ultra TR-FRET), wildtype
Method in brief: as §1

[1] = ATP at Km, read-out: IC50 Del19/T790M/C797S (nM), Km ATP
[2] = IC50 Del19/T790M/C797S (nM), 100 μM ATP
[3] = ATP at Km, read-out: IC50 L858R/T790M/C797S (nM), Km ATP
[4] = IC50 L858R/T790M/C797S (nM), 100 μM ATP
[5] = ATP at Km, read-out: IC50 Del19/C797S (nM), Km ATP
[6] = IC50 Del19/C797S (nM), 100 μM ATP
[7] = ATP at Km, read-out: IC50 L858R/C797S (nM), Km ATP
[8] = IC50 L858R/C797S (nM), 100 μM ATP
[9] = ATP at Km, read-out: IC50 WT (nM), Km ATP

EGFR L858R/T790M/C797S, sequence (P00533 25-1210 T790M/C797S/L858R): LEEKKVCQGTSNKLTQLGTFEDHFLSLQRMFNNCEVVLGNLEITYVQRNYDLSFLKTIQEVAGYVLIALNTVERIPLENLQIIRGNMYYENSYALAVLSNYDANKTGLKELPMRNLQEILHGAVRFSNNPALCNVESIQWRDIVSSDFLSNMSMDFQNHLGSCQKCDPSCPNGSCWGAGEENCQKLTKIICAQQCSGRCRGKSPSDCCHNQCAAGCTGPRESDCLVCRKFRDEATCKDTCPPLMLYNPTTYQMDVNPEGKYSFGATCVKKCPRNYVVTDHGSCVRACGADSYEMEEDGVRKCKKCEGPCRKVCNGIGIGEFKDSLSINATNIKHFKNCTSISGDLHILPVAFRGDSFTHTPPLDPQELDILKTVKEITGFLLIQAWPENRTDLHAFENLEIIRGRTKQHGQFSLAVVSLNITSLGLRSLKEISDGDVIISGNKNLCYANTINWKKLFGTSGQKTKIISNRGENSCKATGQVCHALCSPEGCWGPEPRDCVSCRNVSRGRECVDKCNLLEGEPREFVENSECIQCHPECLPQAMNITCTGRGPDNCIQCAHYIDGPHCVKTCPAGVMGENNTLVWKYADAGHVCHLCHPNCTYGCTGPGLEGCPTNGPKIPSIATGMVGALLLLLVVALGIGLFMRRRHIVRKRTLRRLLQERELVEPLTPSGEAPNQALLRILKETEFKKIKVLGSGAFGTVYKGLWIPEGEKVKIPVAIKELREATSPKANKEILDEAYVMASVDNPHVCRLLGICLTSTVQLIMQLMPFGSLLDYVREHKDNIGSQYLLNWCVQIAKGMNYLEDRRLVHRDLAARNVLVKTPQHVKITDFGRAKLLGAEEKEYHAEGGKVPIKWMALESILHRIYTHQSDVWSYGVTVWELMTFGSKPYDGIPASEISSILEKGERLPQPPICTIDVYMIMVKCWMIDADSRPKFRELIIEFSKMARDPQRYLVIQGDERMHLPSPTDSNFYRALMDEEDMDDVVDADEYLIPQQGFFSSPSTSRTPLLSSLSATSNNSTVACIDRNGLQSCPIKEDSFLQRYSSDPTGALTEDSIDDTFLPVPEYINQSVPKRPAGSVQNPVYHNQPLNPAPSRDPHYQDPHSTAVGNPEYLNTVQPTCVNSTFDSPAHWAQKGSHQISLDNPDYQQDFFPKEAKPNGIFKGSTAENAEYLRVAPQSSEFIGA
EGFR Del19/C797S, sequence (P00533 with tags, fused parts or gaps DEL746-750/C797S): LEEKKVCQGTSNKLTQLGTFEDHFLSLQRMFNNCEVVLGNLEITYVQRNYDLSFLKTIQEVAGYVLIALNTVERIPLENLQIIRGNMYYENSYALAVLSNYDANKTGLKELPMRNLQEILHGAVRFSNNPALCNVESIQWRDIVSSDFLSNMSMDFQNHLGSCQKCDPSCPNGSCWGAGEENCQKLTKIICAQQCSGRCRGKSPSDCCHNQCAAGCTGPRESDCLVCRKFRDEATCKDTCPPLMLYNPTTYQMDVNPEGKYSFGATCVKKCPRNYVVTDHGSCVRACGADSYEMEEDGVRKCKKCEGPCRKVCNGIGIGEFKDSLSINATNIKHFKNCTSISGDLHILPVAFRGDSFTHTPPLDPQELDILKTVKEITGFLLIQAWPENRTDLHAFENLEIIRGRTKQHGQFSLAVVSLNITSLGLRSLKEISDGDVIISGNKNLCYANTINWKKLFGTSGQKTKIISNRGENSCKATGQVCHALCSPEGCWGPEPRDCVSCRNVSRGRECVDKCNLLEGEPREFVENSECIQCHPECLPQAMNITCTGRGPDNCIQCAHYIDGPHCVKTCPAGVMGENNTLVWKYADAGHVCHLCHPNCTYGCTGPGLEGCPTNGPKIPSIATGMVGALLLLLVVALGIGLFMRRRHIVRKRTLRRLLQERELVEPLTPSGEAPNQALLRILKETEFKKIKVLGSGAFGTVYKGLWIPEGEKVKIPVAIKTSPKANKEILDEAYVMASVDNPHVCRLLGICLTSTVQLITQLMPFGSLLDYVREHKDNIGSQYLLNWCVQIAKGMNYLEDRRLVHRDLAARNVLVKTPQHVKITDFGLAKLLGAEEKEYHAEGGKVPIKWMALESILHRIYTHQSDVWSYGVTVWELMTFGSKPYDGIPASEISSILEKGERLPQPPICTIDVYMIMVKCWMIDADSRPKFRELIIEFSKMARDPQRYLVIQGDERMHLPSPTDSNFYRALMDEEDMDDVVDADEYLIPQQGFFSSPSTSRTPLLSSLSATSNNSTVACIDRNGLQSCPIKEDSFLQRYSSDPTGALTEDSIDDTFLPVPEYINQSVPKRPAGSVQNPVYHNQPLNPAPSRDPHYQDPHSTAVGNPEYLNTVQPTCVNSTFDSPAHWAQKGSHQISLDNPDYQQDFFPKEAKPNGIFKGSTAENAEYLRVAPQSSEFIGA
EGFR Del19/T790M/C797S, sequence (P00533 with tags, fused parts or gaps DEL746-750/T790M/C797S): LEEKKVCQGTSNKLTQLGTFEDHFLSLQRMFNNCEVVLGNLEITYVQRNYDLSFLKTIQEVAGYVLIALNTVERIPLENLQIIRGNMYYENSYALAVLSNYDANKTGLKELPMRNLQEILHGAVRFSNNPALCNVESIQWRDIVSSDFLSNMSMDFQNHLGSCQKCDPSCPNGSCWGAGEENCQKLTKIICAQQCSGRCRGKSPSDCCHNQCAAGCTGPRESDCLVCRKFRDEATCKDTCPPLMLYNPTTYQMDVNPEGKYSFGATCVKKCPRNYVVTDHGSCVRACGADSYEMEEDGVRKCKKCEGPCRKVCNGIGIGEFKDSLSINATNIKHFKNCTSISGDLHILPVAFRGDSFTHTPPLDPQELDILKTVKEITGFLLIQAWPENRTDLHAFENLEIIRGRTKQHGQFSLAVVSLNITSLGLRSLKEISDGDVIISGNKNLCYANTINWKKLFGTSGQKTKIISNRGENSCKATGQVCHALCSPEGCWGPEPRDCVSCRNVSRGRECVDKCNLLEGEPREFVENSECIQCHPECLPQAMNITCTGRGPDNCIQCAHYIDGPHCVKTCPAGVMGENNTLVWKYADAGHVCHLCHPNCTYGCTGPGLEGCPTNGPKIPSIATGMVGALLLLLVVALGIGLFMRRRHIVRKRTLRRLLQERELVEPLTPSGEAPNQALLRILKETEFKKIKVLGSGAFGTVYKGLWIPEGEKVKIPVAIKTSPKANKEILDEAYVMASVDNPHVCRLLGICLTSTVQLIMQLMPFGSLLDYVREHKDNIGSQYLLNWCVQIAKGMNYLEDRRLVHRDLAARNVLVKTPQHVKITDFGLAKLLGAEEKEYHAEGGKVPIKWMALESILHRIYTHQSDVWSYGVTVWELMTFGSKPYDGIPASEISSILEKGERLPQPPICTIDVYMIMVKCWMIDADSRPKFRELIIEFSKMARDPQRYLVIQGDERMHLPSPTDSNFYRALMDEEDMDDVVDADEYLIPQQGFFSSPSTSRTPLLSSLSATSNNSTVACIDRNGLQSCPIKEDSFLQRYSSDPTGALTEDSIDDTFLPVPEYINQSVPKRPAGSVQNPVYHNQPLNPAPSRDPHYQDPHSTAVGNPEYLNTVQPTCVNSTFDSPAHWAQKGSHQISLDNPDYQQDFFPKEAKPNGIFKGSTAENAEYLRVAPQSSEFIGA
EGFR L858R/C797S, sequence (P00533 25-1210 C797S/L858R): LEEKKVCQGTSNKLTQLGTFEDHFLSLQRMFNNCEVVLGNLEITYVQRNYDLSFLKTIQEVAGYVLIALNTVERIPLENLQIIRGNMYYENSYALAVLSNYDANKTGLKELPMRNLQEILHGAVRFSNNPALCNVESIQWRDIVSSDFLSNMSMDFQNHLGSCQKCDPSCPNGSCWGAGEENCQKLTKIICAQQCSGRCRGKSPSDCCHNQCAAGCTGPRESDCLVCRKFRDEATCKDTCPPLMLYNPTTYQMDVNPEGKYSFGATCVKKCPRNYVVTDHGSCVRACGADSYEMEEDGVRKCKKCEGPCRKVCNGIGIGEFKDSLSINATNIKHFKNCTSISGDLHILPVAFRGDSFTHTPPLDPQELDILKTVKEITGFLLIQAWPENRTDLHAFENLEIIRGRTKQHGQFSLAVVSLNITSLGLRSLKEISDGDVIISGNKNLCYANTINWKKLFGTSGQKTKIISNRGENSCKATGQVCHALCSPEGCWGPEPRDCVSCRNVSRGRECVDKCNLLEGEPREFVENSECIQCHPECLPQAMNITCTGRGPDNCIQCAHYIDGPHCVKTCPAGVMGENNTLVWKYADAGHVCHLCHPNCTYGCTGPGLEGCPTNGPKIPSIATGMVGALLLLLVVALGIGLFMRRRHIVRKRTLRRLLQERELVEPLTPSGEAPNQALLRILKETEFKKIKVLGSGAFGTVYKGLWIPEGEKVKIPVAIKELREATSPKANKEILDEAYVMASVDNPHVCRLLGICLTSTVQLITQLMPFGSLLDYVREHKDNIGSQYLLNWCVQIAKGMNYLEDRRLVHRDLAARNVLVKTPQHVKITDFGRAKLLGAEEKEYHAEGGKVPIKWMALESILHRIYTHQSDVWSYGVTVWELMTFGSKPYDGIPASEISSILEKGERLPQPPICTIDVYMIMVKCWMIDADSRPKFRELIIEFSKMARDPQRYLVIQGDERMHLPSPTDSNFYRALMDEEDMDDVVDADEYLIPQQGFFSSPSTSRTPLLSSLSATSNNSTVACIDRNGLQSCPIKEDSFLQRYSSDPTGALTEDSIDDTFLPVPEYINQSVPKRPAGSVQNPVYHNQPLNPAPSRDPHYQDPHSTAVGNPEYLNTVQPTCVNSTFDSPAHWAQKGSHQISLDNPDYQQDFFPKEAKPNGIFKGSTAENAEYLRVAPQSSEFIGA

Structure (SMILES)	IC50 (EGFR Del19/T790M/C797S; [1]) [nM]	IC50 (EGFR Del19/T790M/C797S; [2]) [nM]	IC50 (EGFR L858R/T790M/C797S; [3]) [nM]	IC50 (EGFR L858R/T790M/C797S; [4]) [nM]	IC50 (EGFR Del19/C797S; [5]) [nM]	IC50 (EGFR Del19/C797S; [6]) [nM]	IC50 (EGFR L858R/C797S; [7]) [nM]	IC50 (EGFR L858R/C797S; [8]) [nM]	IC50 (EGFR wildtype (WT); [9]) [nM]	IC50 (EGFR wildtype (WT); IC50 WT (nM), 100 μM ATP) [nM]
CC1(CO)CCN(c2cc(Nc3ccnc(-c4cnn(S(=O)(=O)C5CC5)c4)n3)ncc2C#Cc2cnn(CC3CCOC3)c2)CC1 (centres unmarked) [Example 243, (1-(2-((2-(1-(Cyclopropylsulfonyl)-1H-pyrazol-4-yl)pyrimidin-4-yl)amino)-5-((1-((tetrahydrofuran-3-yl)methyl)-1H-pyrazol-4-yl)ethynyl)pyridin-4-yl)-4-methylpiperidin-4-yl)methanol]	0.9	1.4	0.4	1.8	0.8	0.7	0.9	14.7	4.7	2170
CC1(CO)CCN(c2cc(Nc3ccnc(-c4cnn(S(=O)(=O)C5CC5)c4)n3)ncc2C#Cc2cnn(C3CCOC3)c2)CC1 (centres unmarked) [Example 244, (1-(2-((2-(1-(Cyclopropylsulfonyl)-1H-pyrazol-4-yl)pyrimidin-4-yl)amino)-5-((1-(tetrahydrofuran-3-yl)-1H-pyrazol-4-yl)ethynyl)pyridin-4-yl)-4-methylpiperidin-4-yl)methanol]	0.8	1.3	0.5	1.5	0.6	0.5	1	3.1	6	418
CC1(CO)CCN(c2cc(Nc3ccnc(-c4cnn(S(=O)(=O)C5CC5)c4)n3)ncc2C#Cc2cnn(C3COC3)c2)CC1 [Example 245, (1-(2-((2-(1-(Cyclopropylsulfonyl)-1H-pyrazol-4-yl)pyrimidin-4-yl)amino)-5-((1-(oxetan-3-yl)-1H-pyrazol-4-yl)ethynyl)pyridin-4-yl)-4-methylpiperidin-4-yl)methanol]	0.8	1.4	0.5	1.3	0.6	0.5	1.1	2.8	6.7	474
CC1(CO)CCN(c2cc(Nc3ccnc(-c4cnn(S(=O)(=O)C5CC5)c4)n3)ncc2C#C[Si](C)(C)C)CC1 [Example 246, (1-(2-((2-(1-(Cyclopropylsulfonyl)-1H-pyrazol-4-yl)pyrimidin-4-yl)amino)-5-((trimethylsilyl)ethynyl)pyridin-4-yl)-4-methylpiperidin-4-yl)methanol]	7.4	6.4	3.8	15.4	34	54.6	105	957	258	> 10000
C#Cc1cnc(Nc2ccnc(-c3cnn(S(=O)(=O)C4CC4)c3)n2)cc1N1CCC(C)(CO)CC1 [Example 247, (1-(2-((2-(1-(Cyclopropylsulfonyl)-1H-pyrazol-4-yl)pyrimidin-4-yl)amino)-5-ethynylpyridin-4-yl)-4-methylpiperidin-4-yl)methanol]	0.1	0.1	0.1	0.5	1.3	1.7	8.1	42.3	18.7	8670
CC1(CO)CCN(c2cc(Nc3ccnc(-c4cnn(S(=O)(=O)C5CC5)c4)n3)ncc2C#Cc2cn(CC(F)F)c3ccncc23)CC1 [Example 249, (1-(2-((2-(1-(Cyclopropylsulfonyl)-1H-pyrazol-4-yl)pyrimidin-4-yl)amino)-5-((1-(2,2-difluoroethyl)-1H-pyrrolo[3,2-c]pyridin-3-yl)ethynyl)pyridin-4-yl)-4-methylpiperidin-4-yl)methanol]	3.1	2.6	1.1	1.9	6.9	7.5	4.7	29.7	23.9	> 10000
CC1(CO)CCN(c2cc(Nc3ccnc(-c4cnn(S(=O)(=O)C5CC5)c4)n3)ncc2C#CC2CC2)CC1 [Example 250, (1-(5-(Cyclopropylethynyl)-2-((2-(1-(cyclopropylsulfonyl)-1H-pyrazol-4-yl)pyrimidin-4-yl)amino)pyridin-4-yl)-4-methylpiperidin-4-yl)methanol]	0.7	0.7	0.4	0.9	2	2.8	6.6	74.7	15	> 10000
CC1(CO)CCN(c2cc(Nc3ccnc(-c4cnn(S(=O)(=O)C5CC5)c4)n3)ncc2C#CC2CCCC2)CC1 [Example 251, (1-(5-(Cyclopentylethynyl)-2-((2-(1-(cyclopropylsulfonyl)-1H-pyrazol-4-yl)pyrimidin-4-yl)amino)pyridin-4-yl)-4-methylpiperidin-4-yl)methanol]	3	3.3	1.4	5.3	8.7	15.9	41.5	397	72.6	> 10000
CC1(CO)CCN(c2cc(Nc3ccnc(-c4cnn(S(=O)(=O)C5CC5)c4)n3)ncc2C#CC2CCCCC2)CC1 [Example 252, (1-(5-(Cyclohexylethynyl)-2-((2-(1-(cyclopropylsulfonyl)-1H-pyrazol-4-yl)pyrimidin-4-yl)amino)pyridin-4-yl)-4-methylpiperidin-4-yl)methanol]	8.5	7.9	4.3	15.9	35.9	39.9	100	2080	235	> 10000
CC1(CO)CCN(c2cc(Nc3ccnc(-c4cnn(S(=O)(=O)C5CC5)c4)n3)ncc2C#Cc2ccc(CN3CCOCC3)cc2)CC1 [Example 253, (1-(2-((2-(1-(Cyclopropylsulfonyl)-1H-pyrazol-4-yl)pyrimidin-4-yl)amino)-5-((4-(morpholinomethyl)phenyl)ethynyl)pyridin-4-yl)-4-methylpiperidin-4-yl)methanol]	5.3	3.3	3.1	4.4	4.2	7.1	9.8	81.2	23.9	> 10000
CN(C)Cc1ccc(C#Cc2cnc(Nc3ccnc(-c4cnn(S(=O)(=O)C5CC5)c4)n3)cc2N2CCC(C)(CO)CC2)cc1 [Example 254, (1-(2-((2-(1-(Cyclopropylsulfonyl)-1H-pyrazol-4-yl)pyrimidin-4-yl)amino)-5-((4-((dimethylamino)methyl)phenyl)ethynyl)pyridin-4-yl)-4-methylpiperidin-4-yl)methanol]	0.1	0.2	0.1	0.2	0.3	0.4	2.1	1.3	0.9	248
CN(C)Cc1cccc(C#Cc2cnc(Nc3ccnc(-c4cnn(S(=O)(=O)C5CC5)c4)n3)cc2N2CCC(C)(CO)CC2)c1 [Example 255, (1-(2-((2-(1-(Cyclopropylsulfonyl)-1H-pyrazol-4-yl)pyrimidin-4-yl)amino)-5-((3-((dimethylamino)methyl)phenyl)ethynyl)pyridin-4-yl)-4-methylpiperidin-4-yl)methanol]	1.3	0.2	0.1	0.3	0.3	0.4	1.4	1.2	1	376
CC1(CO)CCN(c2cc(Nc3ccnc(-c4cnn(S(=O)(=O)C5CC5)c4)n3)ncc2C#Cc2ccccc2)CC1 [Example 256, (1-(2-((2-(1-(Cyclopropylsulfonyl)-1H-pyrazol-4-yl)pyrimidin-4-yl)amino)-5-(phenylethynyl)pyridin-4-yl)-4-methylpiperidin-4-yl)methanol]	–	20.6	–	17.7	–	7.6	–	67.3	–	> 10000
CC1(CO)CCN(c2cc(Nc3ccnc(-c4cnn(S(=O)(=O)C5CC5)c4)n3)ncc2C#Cc2ccccc2F)CC1 [Example 257, (1-(2-((2-(1-(Cyclopropylsulfonyl)-1H-pyrazol-4-yl)pyrimidin-4-yl)amino)-5-((2-fluorophenyl)ethynyl)pyridin-4-yl)-4-methylpiperidin-4-yl)methanol]	–	19.4	–	23.1	–	10.7	–	143	–	> 10000
CC1(CO)CCN(c2cc(Nc3ccnc(-c4cnn(S(=O)(=O)C5CC5)c4)n3)ncc2C#Cc2ccncc2)CC1 [Example 258, (1-(2-((2-(1-(Cyclopropylsulfonyl)-1H-pyrazol-4-yl)pyrimidin-4-yl)amino)-5-(pyridin-4-ylethynyl)pyridin-4-yl)-4-methylpiperidin-4-yl)methanol]	0.3	0.5	0.1	0.5	0.7	0.5	1.8	7.7	5	5310

From patent US11981658B2, “Substituted aminopyridine compounds as EGFR inhibitors” (YUHAN CORPORATION, priority 2021, dated 2024)
